From patent publication US6472348B1, “Pyridone derivatives and herbicides” (Kumiai Chemical Industry Co., Ltd., priority 1996, dated 2002)

Experiments:
China jute (Ab) = test: Test Example 10: crop plant selectivity by upland field foliage treatment (soybean), herbicidal effects; format: in vivo; settings: dose 1.6 g ai/10a, 14th day after treatment
Method: (§1) (Test on Crop Plant Selectivity by Upland Field Foliage Treatment)
(§2) In a plastic pot (surface area: 600 cm^2) filled with sand, soybean (Gl), pale smartweed (Po), slender amaranth (Am), common lambsquarters (Ch) and China jute (Ab) were sown and cultured in a green house for 2 weeks. […] The plants were then cultured in a green house, and the evaluation of the herbicidal effects and phytotoxicity was conducted on the 14th day after the treatment in accordance with the standards as identified in Table 47.

[1] = tested on: common lambsquarters (Ch); test: as above; format: in vivo; settings: dose 1.6 g ai/10a, 14th day after treatment
Method: as §1, §2

pale smartweed (Po) [2] = test: as above; format: in vivo; settings: dose 1.6 g ai/10a, 14th day after treatment
Method: as §1, §2

[3] = tested on: common lambsquarters (Ch); test: Test Example 3: herbicidal effects by upland field foliage treatment; format: in vivo; design: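 grade of growth control; 5 = at least 90%; 4 = 70 to 90%; 3 = 50 to 70%; 2 = 30 to 50%; 1 = 10 to 30%; 0 = under 10%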
How it was run: (§3)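 Using plants cultured for 2 weeks in a greenhouse from seed sown in soil-covered sand (pots 120 cm^2), the compounds were applied to foliage, and weed control was graded by standard criteria 14 days thereafter.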

slender amaranth (Am) = test: as above; format: in vivo; design: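 grade of growth control; 5 = at least 90%; 4 = 70 to 90%; 3 = 50 to 70%; 2 = 30 to 50%; 1 = 10 to 30%; 0 = under 10%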
How it was run: as §3

rice flatsedge (Ci) = test: as above; format: in vivo; design: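 grade of growth control; 5 = at least 90%; 4 = 70 to 90%; 3 = 50 to 70%; 2 = 30 to 50%; 1 = 10 to 30%; 0 = under 10%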
How it was run: as §3

Diaitaria ciliaris (Di) = test: as above; format: in vivo; design: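 grade of growth control; 5 = at least 90%; 4 = 70 to 90%; 3 = 50 to 70%; 2 = 30 to 50%; 1 = 10 to 30%; 0 = under 10%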
How it was run: as §3

pale smartweed (Po) [4] = test: as above; format: in vivo; design: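 grade of growth control; 5 = at least 90%; 4 = 70 to 90%; 3 = 50 to 70%; 2 = 30 to 50%; 1 = 10 to 30%; 0 = under 10%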
How it was run: as §3

barnyardgrass (Ec) = test: as above; format: in vivo; design: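 grade of growth control; 5 = at least 90%; 4 = 70 to 90%; 3 = 50 to 70%; 2 = 30 to 50%; 1 = 10 to 30%; 0 = under 10%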
How it was run: as §3

corn (Ze) = test: Test Example 11: crop plant selectivity by upland field foliage treatment (corn), phytotoxicity
How it was run: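 Corn with pale smartweed, slender amaranth, common lambsquarters and China jute sown in sand-filled pots and grown 2 weeks in a greenhouse before foliage treatment. Herbicidal effect and crop phytotoxicity scored on day 14 after treatment against a rating standard.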

soybean (Gl) = test: Test Example 10: crop plant selectivity by upland field foliage treatment (soybean), phytotoxicity; settings: dose 1.6 g ai/10a, 14th day after treatment
Method: as §1, §2

[5] = 100 g of the active ingredient per 10 ares, evaluated on the 14th day after treatment
[6] = upland field foliage treatment, dose 1.6 g ai/10a, 14th day after treatment
[7] = 100 g active ingredient per 10 ares, evaluated 14th day after treatment

Row | SMILES | Herbicidal effects Ab (China jute (Ab)) | Herbicidal effects Ch [1] | Herbicidal effects Po (pale smartweed (Po) [2]) | Herbicidal effects Ch [3, 5] | Herbicidal effects Am (slender amaranth (Am); [5]) | Herbicidal effects Ci (rice flatsedge (Ci); [5]) | Herbicidal effects Di (Diaitaria ciliaris (Di); [5]) | Herbicidal effects Po (pale smartweed (Po) [4]; [5]) | Herbicidal effects Ec (barnyardgrass (Ec); [5]) | Phytotoxicity Ze (corn (Ze); [6]) | Phytotoxicity Gl (soybean (Gl)) | Herbicidal effects Ch [3, 7] | Herbicidal effects Am (slender amaranth (Am); [7]) | Herbicidal effects Ci (rice flatsedge (Ci); [7]) | Herbicidal effects Di (Diaitaria ciliaris (Di); [7]) | Herbicidal effects Po (pale smartweed (Po) [4]; [7]) | Herbicidal effects Ec (barnyardgrass (Ec); [7]) | Phytotoxicity Ze (corn (Ze); corn, foliage treatment, dose 1.6 g ai/10a, evaluated on 14th day after treatment, index per Table 47) | melting point [°C] | Phytotoxicity Ze (corn (Ze); upland field foliage treatment, dose 0.1 g ai/10a, 14th day after treatment)
1 | Cn1c(C(F)(F)F)ccc(-c2cc(OCCCl)c(Cl)cc2F)c1=O [1-171] | 5 | 5 | 5 | 5 | 5 | 5 | 5 | 5 | 5 | 1 | 2 |  |  |  |  |  |  |  |  | 
2 | CCON=Cc1cc(-c2ccc(C(F)(F)F)n(C)c2=O)c(F)cc1Cl [Compound 1-187] | 5 | 5 | 5 |  |  |  |  |  |  | 2 | 2 | 5 | 5 | 5 | 5 | 5 | 5 |  |  | 
3 | CSCOc1cc(-c2ccc(C(F)(F)F)n(C)c2=O)c(F)cc1Cl [Compound 1-208] | 5 | 5 | 5 |  |  |  |  |  |  | 2 | 2 | 5 | 5 | 5 | 5 | 5 | 5 |  |  | 
4 | CCCc1cc2c(-c3ccc(C(F)(F)F)n(C)c3=O)c(F)cc(Cl)c2o1 [Compound 4-3] | 5 | 5 | 5 |  |  |  |  |  |  | 2 | 2 | 5 | 5 | 5 | 5 | 5 | 5 |  |  | 
5 | CCc1cc2c(Cl)cc(F)c(-c3ccc(C(F)(F)F)n(C)c3=O)c2o1 [Compound 5-2] | 5 | 5 | 5 |  |  |  |  |  |  |  | 2 | 5 | 5 | 5 | 5 | 5 | 5 | 2 |  | 
6 | CON=Cc1cc(-c2ccc(C(F)(F)F)n(C)c2=O)c(F)cc1Cl [Compound No. 1-72, 5-(1-methyl-6-trifluoromethyl-2(1H)-pyridon-3-yl)-2-chloro-4-fluorobenzaldehydeoxime-O-methyl ether] |  |  |  | 5 | 5 | 5 | 5 | 5 | 5 | 2 |  |  |  |  |  |  |  |  |  | 
7 | Cn1c(C(F)(F)F)ccc(-c2cc(C#N)c(Cl)cc2F)c1=O [Compound No. 1-119, 3-(4-chloro-5-cyano-2-fluorophenyl)-1-methyl-6-trifluoromethyl-2(1H)-pyridone] | 4 | 5 | 5 | 5 | 5 | 5 | 5 | 5 | 5 | 2 | 2 |  |  |  |  |  |  |  | 180 to 181 | 
8 | CCCC(=O)c1cc(-c2ccc(C(F)(F)F)n(C)c2=O)c(F)cc1Cl [Compound No. 1-194, 3-[4-chloro-2-fluoro-5-(1-oxobutyl)phenyl]-1-methyl-6-trifluoromethyl-2(1H)-pyridone] |  |  |  |  |  |  |  |  |  | 1 |  | 5 | 5 | 5 | 5 | 5 | 5 |  |  | 
9 | C#CCN1C(=O)COc2cc(F)c(-c3ccc(C(F)(F)F)n(C)c3=O)cc21 [Compound No. 2-1, 3-[7-fluoro-2,3-dihydro-4-(2-propynyl)-1,4-benzoxazin-3-on-6-yl]-1-methyl-6-trifluoromethyl-2(1H)-pyridone] |  |  |  |  |  |  |  |  |  |  |  | 5 | 5 | 5 | 5 | 5 | 5 |  |  | 0
10 | C#CCn1c(=O)sc2cc(F)c(-c3ccc(C(F)(F)F)n(C)c3=O)cc21 [Compound No. 3-1, 3-[6-fluoro-3-(2-propynyl)-benzothiazolin-2-on-5-yl]-1-methyl-6-trifluoromethyl-2(1H)-pyridone] |  |  |  |  |  |  |  |  |  |  |  | 5 | 5 | 5 | 5 | 5 | 5 |  | 150 to 151 | 
11 | COCc1cc2c(-c3ccc(C(F)(F)F)n(C)c3=O)c(F)cc(Cl)c2o1 [Compound No. 4-4, 3-(7-chloro-5-fluoro-2-methoxymethylbenzofuran-4-yl)-1-methyl-6-trifluoromethyl-2-(1H)-pyridone] |  |  |  |  |  |  |  |  |  | 2 |  | 5 | 5 | 5 | 5 | 5 | 5 |  | 136 to 137 | 
12 | Cn1c(C(F)(F)F)ccc(-c2c(F)cc(Cl)c3oc(CO)cc23)c1=O [Compound No. 4-5, 3-(7-chloro-5-fluoro-2-hydroxymethylbenzofuran-4-yl)-1-methyl-6-trifluoromethyl-2-(1H)-pyridone] |  |  |  |  |  |  |  |  |  | 1 |  | 5 | 5 | 5 | 5 | 5 | 5 |  | 145 to 147 | 
13 | Cn1c(C(F)(F)F)ccc(-c2c(F)cc(Cl)c3occc23)c1=O [Compound No. 4-28, 3-(7-chloro-5-fluorobenzofuran-4-yl)-1-methyl-6-trifluoromethyl-2-(1H)-pyridone] |  |  |  |  |  |  |  |  |  | 2 |  | 5 | 5 | 5 | 5 | 5 | 4 |  | 178 to 179 | 
14 | Cn1cc(-c2cc(Oc3ccccc3)c(Cl)cc2F)c(=O)cc1C(F)(F)F [Compound No. 6-19, 5-(4-chloro-2-fluoro-5-phenoxyphenyl)-1-methyl-2-trifluoromethyl-4(1H)-pyridone] |  |  |  |  |  |  |  |  |  |  |  | 5 | 5 | 5 | 5 | 5 | 5 |  | 159 to 161 | 
15 | Cc1cc2c(-c3cn(C)c(C(F)(F)F)cc3=O)c(F)cc(Cl)c2o1 [Compound No. 9-1, 5-(7-chloro-5-fluoro-2-methylbenzofuran-4-yl)-1-methyl-2-trifluoromethyl-4(1H)-pyridone] |  |  |  |  |  |  |  |  |  |  |  | 5 | 5 | 5 | 5 | 5 | 5 |  | 208 to 211 | 
